Where “and” joins values, the source holds several entries; their conditions need not be identical. Equal values may be shown once. Toxic doses and inconclusive results are not listed. The calls were made as follows: active = survival T/C of 150% or more; inactive = T/C below 125% in these data.
Test system: BDF1 mice, P388 leukemia ip, median survival T/C
Assay: NCI In Vivo Anticancer Drug Screen. Data for tumor model P388 Leukemia (intraperitoneal) in B6D2F1 (BDF1) mice
Conditions: endpoint: median survival time, higher = longer survival
Outline: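 Vehicle-dosed animals serve as the reference; survival of compound-dosed, tumour-implanted mice is divided by it.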

[1] = dose: 12.0 mg/kg/injection, schedule: Q01DX009 (ip), vehicle: Klucel (hydroxypropylcellulose) (HPC)
[2] = dose: 25.0 mg/kg/injection, schedule: Q01DX009 (ip), vehicle: saline
[3] = dose: 50.0 mg/kg/injection, schedule: Q01DX009 (ip), vehicle: saline
[4] = dose: 25.0 mg/kg/injection, schedule: Q01DX009 (ip), vehicle: saline with Tween-80
[5] = dose: 50.0 mg/kg/injection, schedule: Q01DX009 (ip), vehicle: saline with Tween-80
[6] = dose: 100.0 mg/kg/injection, schedule: Q01DX009 (ip), vehicle: saline with Tween-80
[7] = dose: 200.0 mg/kg/injection, schedule: Q01DX009 (ip), vehicle: saline with Tween-80
[8] = dose: 100.0 mg/kg/injection, schedule: Q01DX001 (ip), vehicle: saline with Tween-80
[9] = dose: 200.0 mg/kg/injection, schedule: Q01DX001 (ip), vehicle: saline with Tween-80
[10] = dose: 6.0 mg/kg/injection, schedule: Q01DX009 (ip), vehicle: Klucel (hydroxypropylcellulose) (HPC)

Measured: T/C

CNC(=O)Oc1coc(CCl)cc1=O
inactive: [1] 95 % of control | dose: 16.5 mg/kg/injection, schedule: Q01DX009 (ip), vehicle: saline 108 % of control | dose: 18.0 mg/kg/injection, schedule: Q01DX009 (ip), vehicle: Klucel (hydroxypropylcellulose) (HPC) 86 % of control | [2] 120 % of control | dose: 27.0 mg/kg/injection, schedule: Q01DX009 (ip), vehicle: Klucel (hydroxypropylcellulose) (HPC) 100 % of control | dose: 37.5 mg/kg/injection, schedule: Q01DX009 (ip), vehicle: saline 116 % of control | dose: 40.0 mg/kg/injection, schedule: Q01DX009 (ip), vehicle: Klucel (hydroxypropylcellulose) (HPC) 118 % of control | dose: 60.0 mg/kg/injection, schedule: Q01DX009 (ip), vehicle: Klucel (hydroxypropylcellulose) (HPC) 118 % of control

CN(C)CCC12CC(=O)CCC1C=Cc1ccc(O)c(O)c12 (stereo not drawn)
inactive: [2] 100 % of control | [3] 95 % of control | dose: 100.0 mg/kg/injection, schedule: Q01DX009 (ip), vehicle: saline 91 % of control

CC(=O)CC(=O)Nc1ccccn1
inactive: [4] 95 % of control | [5] 92 % of control | [6] 98 % of control | [7] 104 % of control

COC1(c2ccc(Br)cc2)OC1(C)C (stereo not drawn)
inactive: dose: 6.25 mg/kg/injection, schedule: Q04DX003 (ip), vehicle: water 101 % of control | dose: 12.5 mg/kg/injection, schedule: Q04DX003 (ip), vehicle: water 94 % of control | dose: 25.0 mg/kg/injection, schedule: Q01DX009 (ip), vehicle: water 110 % of control | dose: 25.0 mg/kg/injection, schedule: Q04DX003 (ip), vehicle: water 101 % of control | dose: 50.0 mg/kg/injection, schedule: Q01DX009 (ip), vehicle: water 112 % of control | dose: 50.0 mg/kg/injection, schedule: Q04DX003 (ip), vehicle: water 97 % of control | dose: 100.0 mg/kg/injection, schedule: Q01DX009 (ip), vehicle: water 100 % of control | dose: 100.0 mg/kg/injection, schedule: Q04DX003 (ip), vehicle: water 86 % of control | dose: 200.0 mg/kg/injection, schedule: Q01DX009 (ip), vehicle: water 110 % of control | dose: 400.0 mg/kg/injection, schedule: Q01DX009 (ip), vehicle: water 124 % of control

O=C(NC(=O)c1c(F)cccc1F)Nc1nc2ccccc2s1
inactive: [4] 93 % of control | [6] 93 % of control

C(=N\Nc1nc2ccccc2o1)/c1ccncc1
inactive: dose: 100.0 mg/kg/injection, schedule: Q01DX009 (ip), vehicle: Klucel (hydroxypropylcellulose) (HPC) 100 % of control and 104 % of control | dose: 100.0 mg/kg/injection, schedule: Q04DX003 (ip), vehicle: Klucel (hydroxypropylcellulose) (HPC) 100 % of control | dose: 200.0 mg/kg/injection, schedule: Q01DX009 (ip), vehicle: Klucel (hydroxypropylcellulose) (HPC) 109 % of control | dose: 200.0 mg/kg/injection, schedule: Q04DX003 (ip), vehicle: Klucel (hydroxypropylcellulose) (HPC) 95 % of control | dose: 400.0 mg/kg/injection, schedule: Q01DX009 (ip), vehicle: Klucel (hydroxypropylcellulose) (HPC) 105 % of control and 109 % of control | dose: 400.0 mg/kg/injection, schedule: Q04DX003 (ip), vehicle: Klucel (hydroxypropylcellulose) (HPC) 100 % of control

CC(C)CC(C(N)=O)c1ccccc1 (stereo not drawn)
inactive: [8] 100 % of control | [9] 104 % of control

O=c1nc(Oc2ccccc2)nc2ccc(Cl)nn12
inactive: [5] 105 % of control | [6] 116 % of control

Nc1ccc(CCCCc2ccccc2)cc1
inactive: dose: 7.03 mg/kg/injection, schedule: Q04DX003 (ip), vehicle: saline 104 % of control | dose: 12.5 mg/kg/injection, schedule: Q01DX009 (ip), vehicle: saline 109 % of control | dose: 14.06 mg/kg/injection, schedule: Q04DX003 (ip), vehicle: saline 113 % of control | [2] 113 % of control | dose: 28.12 mg/kg/injection, schedule: Q04DX003 (ip), vehicle: saline 109 % of control | [3] 113 % of control | dose: 56.25 mg/kg/injection, schedule: Q04DX003 (ip), vehicle: saline 116 % of control | dose: 75.0 mg/kg/injection, schedule: Q01DX009 (ip), vehicle: saline 109 % of control

Cc1cc(/C=C/c2cc[n+](C)c3ccccc23)c(O)c2ncccc12
active: dose: 3.0 mg/kg/injection, schedule: Q01DX009 (ip), vehicle: saline 163 % of control | [10] 155 % of control | dose: 6.0 mg/kg/injection, schedule: Q01DX009 (ip), vehicle: saline 159 % of control | [1] 165 % of control | dose: 12.0 mg/kg/injection, schedule: Q01DX009 (ip), vehicle: saline 159 % of control | dose: 24.0 mg/kg/injection, schedule: Q01DX009 (ip), vehicle: saline 168 % of control

Nc1nc(N)c(N=Cc2ccccc2)c(=O)[nH]1
inactive: [8] 108 % of control | [9] 88 % of control | dose: 400.0 mg/kg/injection, schedule: Q01DX001 (ip), vehicle: saline with Tween-80 97 % of control

O=[N+]([O-])c1ccc(C(F)(F)F)cc1
inactive: dose: 25.0 mg/kg/injection, schedule: Q01DX009 (ip), vehicle: other 109 % of control | dose: 50.0 mg/kg/injection, schedule: Q01DX009 (ip), vehicle: other 104 % of control | dose: 50.0 mg/kg/injection, schedule: Q04DX003 (ip), vehicle: other 95 % of control | dose: 100.0 mg/kg/injection, schedule: Q01DX009 (ip), vehicle: other 113 % of control | dose: 100.0 mg/kg/injection, schedule: Q04DX003 (ip), vehicle: other 100 % of control | dose: 200.0 mg/kg/injection, schedule: Q04DX003 (ip), vehicle: other 100 % of control

CCOC(=O)/C(C#N)=C/N=c1ncccn1C
inactive: dose: 100.0 mg/kg/injection, schedule: Q04DX003 (ip), vehicle: saline with Tween-80 98 % of control | dose: 200.0 mg/kg/injection, schedule: Q04DX003 (ip), vehicle: saline with Tween-80 93 % of control | dose: 400.0 mg/kg/injection, schedule: Q04DX003 (ip), vehicle: saline with Tween-80 102 % of control

CCC[CH2][Sn]([I])([CH2]I)[CH2]CCC
inactive: dose: 1.56 mg/kg/injection, schedule: Q01DX009 (ip), vehicle: saline with Tween-80 102 % of control | dose: 3.12 mg/kg/injection, schedule: Q01DX009 (ip), vehicle: saline with Tween-80 106 % of control | dose: 6.25 mg/kg/injection, schedule: Q01DX009 (ip), vehicle: saline with Tween-80 123 % of control

Cc1ccc(S(=O)(=O)N/N=C/C(O)C(O)C(O)CO)cc1 (stereo not drawn)
inactive: dose: 100.0 mg/kg/injection, schedule: Q01DX001 (ip), vehicle: saline 110 % of control | dose: 200.0 mg/kg/injection, schedule: Q01DX001 (ip), vehicle: saline 105 % of control | dose: 400.0 mg/kg/injection, schedule: Q01DX001 (ip), vehicle: saline 120 % of control

CCCCC(C)C(=O)CC(SCC)c1ccc(Cl)c(Cl)c1 (stereo not drawn)
inactive: [5] 99 % of control | [6] 99 % of control | [7] 96 % of control

O=C1OCC2CC3c4ccccc4C12c1ccccc13 (stereo not drawn)
inactive: dose: 200.0 mg/kg/injection, schedule: Q01DX001 (ip), vehicle: Klucel (hydroxypropylcellulose) (HPC) 105 % of control | dose: 400.0 mg/kg/injection, schedule: Q01DX001 (ip), vehicle: Klucel (hydroxypropylcellulose) (HPC) 95 % of control

COC1(C)CCC(C=O)C(C#N)(C#N)C1(C#N)C#N (stereo not drawn)
inactive: dose: 12.5 mg/kg/injection, schedule: Q01DX001 (ip), vehicle: saline with Tween-80 98 % of control | dose: 25.0 mg/kg/injection, schedule: Q01DX001 (ip), vehicle: saline with Tween-80 100 % of control | dose: 50.0 mg/kg/injection, schedule: Q01DX001 (ip), vehicle: saline with Tween-80 104 % of control

N#Cc1nc2c(nc1C#N)-c1ccccc1C2=O
inactive: [10] 100 % of control | dose: 6.25 mg/kg/injection, schedule: Q04DX003 (ip), vehicle: Klucel (hydroxypropylcellulose) (HPC) 100 % of control | [1] 107 % of control | dose: 12.5 mg/kg/injection, schedule: Q04DX003 (ip), vehicle: Klucel (hydroxypropylcellulose) (HPC) 108 % of control | dose: 25.0 mg/kg/injection, schedule: Q04DX003 (ip), vehicle: Klucel (hydroxypropylcellulose) (HPC) 104 % of control

O=[N+]([O-])c1ccc(S)cc1
inactive: dose: 18.75 mg/kg/injection, schedule: Q01DX009 (ip), vehicle: saline sonified 100 % of control | dose: 37.5 mg/kg/injection, schedule: Q01DX009 (ip), vehicle: saline sonified 100 % of control | dose: 75.0 mg/kg/injection, schedule: Q01DX009 (ip), vehicle: saline sonified 117 % of control

Nc1nc(N)c(Cl)c(Nc2cccc(Cl)c2)n1
inactive: [5] 102 % of control | [6] 103 % of control | [7] 105 % of control
